Measurements published in patent US20250136548A1, “FUNCTIONALIZED ALKYLAMINES” (Terran Biosciences Inc., priority 2022, published 2025).

How the values were obtained:
5-HT2A receptor = target: T1, 5-HT2A receptor (Homo sapiens, UniProt P28223); test: Calcium mobilization assay, agonist format, 5-HT2A receptor; type: cell-based; details: agonist mode, % activity relative to MAX control ligand (5-HT positive control), read-out: 5-HT2A agonist efficacy @ 1 μM
T1 construct: host or cells: unnamed cell lines
Method: (§1) • Protocol: in vitro testing at select 5-hydroxytryptamine (5-HT; serotonin) receptors was conducted.
(§2) Assay Design: Calcium Mobilization
(§3) • 1. Cell lines were expanded from freezer stocks according to standard procedures. • 2. Cells were seeded in a total volume of 20 μL into black-walled, clear-bottom, Poly-D-lysine coated 384-well microplates and incubated at 37° C. for the appropriate time prior to testing.
(§4) • 1. Assays were performed in 1×Dye Loading Buffer consisting of 1× Dye, 1× Additive A and 2.5 mM Probenecid in HBSS/20 mM Hepes. Probenicid was prepared fresh. • 2. Cells were loaded with dye prior to testing. Media was aspirated from cells and replaced with 20 μL Dye Loading Buffer. • 3. Cells were incubated for 30-60 minutes at 37° C.
(§5) • 1. For agonist determination, cells were incubated with sample to induce response. • 2. After dye loading, cells were removed from the incubator and 10 μL HBSS/20 mM Hepes was added. 3× vehicle was included in the buffer when performing agonist dose curves to define the EC80 for subsequent antagonist assays. Cells were incubated for 30 minutes at room temperature in the dark to equilibrate plate temperature. • 3. Intermediate dilution of sample stocks was performed to generate 4× sample in assay buffer. • 4. Compound agonist activity was measured on a FLIPR Tetra (MDS). Calcium mobilization was monitored for 2 minutes and 10 μL 4× sample in HBSS/20 mM Hepes was added to the cells 5 seconds into the assay.
(§6) • 1. Compound activity was analyzed using CBIS data analysis suite (ChemInnovation, CA). • 2. For agonist mode assays, percentage activity is calculated using the following formula:
(§7) % Activity=100%×(mean RFU of test sample−mean RFU of vehicle control)/(mean MAX RFU control ligand −mean RFU of vehicle control). • 3. For positive allosteric mode assays, percentage modulation was calculated using the following formula: […]

5-HT2B receptor = target: T2, 5-HT2B receptor (Homo sapiens, UniProt P41595); test: Calcium mobilization assay, agonist format, 5-HT2B receptor; type: cell-based; details: agonist mode, % activity relative to MAX control ligand (5-HT positive control), read-out: 5-HT2B agonist efficacy @ 1 μM
T2 construct: host or cells: unnamed cell lines
Method: as §1, §2, §3, §4, §5, §6, §7

T1 sequence (P28223 whole entry): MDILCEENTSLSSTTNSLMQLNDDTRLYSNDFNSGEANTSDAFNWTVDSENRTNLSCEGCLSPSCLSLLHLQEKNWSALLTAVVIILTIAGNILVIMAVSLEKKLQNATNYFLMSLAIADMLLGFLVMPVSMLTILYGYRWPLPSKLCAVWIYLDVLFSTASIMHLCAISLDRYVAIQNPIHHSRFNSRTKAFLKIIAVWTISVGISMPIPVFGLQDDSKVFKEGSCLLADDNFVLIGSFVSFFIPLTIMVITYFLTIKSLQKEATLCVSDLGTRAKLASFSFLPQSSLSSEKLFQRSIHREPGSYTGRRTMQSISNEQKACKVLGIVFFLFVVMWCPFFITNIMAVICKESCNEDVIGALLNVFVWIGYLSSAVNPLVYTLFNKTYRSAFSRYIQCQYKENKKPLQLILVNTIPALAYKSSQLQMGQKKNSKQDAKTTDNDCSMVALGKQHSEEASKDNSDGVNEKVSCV
T2 sequence (P41595 whole entry): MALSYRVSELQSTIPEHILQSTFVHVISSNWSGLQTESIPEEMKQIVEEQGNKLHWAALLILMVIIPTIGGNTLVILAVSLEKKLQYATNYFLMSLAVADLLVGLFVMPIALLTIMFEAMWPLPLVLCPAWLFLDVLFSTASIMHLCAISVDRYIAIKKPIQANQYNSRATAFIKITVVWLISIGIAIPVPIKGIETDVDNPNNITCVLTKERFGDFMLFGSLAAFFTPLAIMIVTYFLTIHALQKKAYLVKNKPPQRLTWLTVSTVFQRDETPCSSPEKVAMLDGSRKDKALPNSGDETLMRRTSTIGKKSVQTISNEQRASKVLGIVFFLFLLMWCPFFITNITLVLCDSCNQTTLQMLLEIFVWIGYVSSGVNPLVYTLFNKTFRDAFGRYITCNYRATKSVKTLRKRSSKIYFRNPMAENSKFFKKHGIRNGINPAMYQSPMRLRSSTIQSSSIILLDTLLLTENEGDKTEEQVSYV

Compound	activation at 1 µM (5-HT2A receptor) [%]	activation at 1 µM (5-HT2B receptor) [%]
CC1(O)CCN(CCn2ccc3cc(F)c(F)cc32)C1 (stereo not shown) [1-[2-(5,6-Difluoroindol-1-yl)ethyl]-3-methyl-pyrrolidin-3-ol]	-0.1	-2.5
OC1CCN(CCn2ccc3cc(F)c(F)cc32)C1 (stereo not shown) [1-[2-(5,6-Difluoroindol-1-yl)ethyl]pyrrolidin-3-ol]	2	-0.7
CC1(O)CCN(CCc2c[nH]c3cc(F)c(F)cc23)C1 (stereo not shown) [1-[2-(5,6-difluoro-1H-indol-3-yl)ethyl]-3-methyl-pyrrolidin-3-ol]	1.9	-1
CC1(O)CCN(CCn2ccc3cc(F)ccc32)C1 (stereo not shown) [1-[2-(5-Fluoroindol-1-yl)ethyl]-3-methyl-pyrrolidin-3-ol]	-0.3	-1.1
OC1CCN(CCn2ccc3cc(F)ccc32)C1 (stereo not shown) [1-[2-(5-Fluoroindol-1-yl)ethyl]pyrrolidin-3-ol]	-0.2	-1.2
CC1(O)CCN(CCc2c[nH]c3ccc(F)cc23)C1 (stereo not shown) [1-[2-(5-fluoro-1H-indol-3-yl)ethyl]-3-methyl-pyrrolidin-3-ol]	7.5	-1.5
OC1CCN(CCc2c[nH]c3ccc(F)cc23)C1 (stereo not shown) [1-[2-(5-fluoro-1H-indol-3-yl)ethyl]pyrrolidin-3-olethanamine]	46	-0.7
CC1(O)CCN(CCn2ccc3ccc(F)cc32)C1 (stereo not shown) [1-[2-(6-Fluoroindol-1-yl)ethyl]-3-methyl-pyrrolidin-3-ol]	0	-1.3
OC1CCN(CCn2ccc3ccc(F)cc32)C1 (stereo not shown) [1-[2-(6-Fluoroindol-1-yl)ethyl]pyrrolidin-3-ol]	2.5	-2.8
CC1(O)CCN(CCc2c[nH]c3cc(F)ccc23)C1 (stereo not shown) [1-[2-(6-fluoro-1H-indol-3-yl)ethyl]-3-methyl-pyrrolidin-3-ol]	-0.3	-1.1
CN(CCn1ccc2cc(F)c(F)cc21)CCS(C)(=O)=O [2-(5,6-Difluoroindol-1-yl)-N-methyl-N-(2-methylsulfonylethyl)ethanamine]	-0.5	-1.3
CN(CCn1ccc2cc(F)ccc21)CCS(C)(=O)=O [2-(5-Fluoroindol-1-yl)-N-methyl-N-(2-methylsulfonylethyl)ethanamine]	-0.8	-2.7
CN(CCc1c[nH]c2ccc(F)cc12)CCS(C)(=O)=O [2-(5-fluoro-1H-indol-3-yl)-N-methyl-N-(2-methylsulfonylethyl)ethanamine]	27.3	-0.5
CN(CCn1ccc2ccc(F)cc21)CCS(C)(=O)=O [2-(6-Fluoroindol-1-yl)-N-methyl-N-(2-methylsulfonylethyl)ethanamine]	-1.2	-1.3
CN(CCO)CCn1ccc2cc(F)c(F)cc21 [2-[2-(5,6-Difluoroindol-1-yl)ethyl-methyl-amino]ethanol]	6.2	0.1
CN(CCO)CCc1c[nH]c2ccc(F)cc12 [2-[2-(5-Fluoro-1H-indol-3-yl)ethyl-methyl-amino]ethanol]	47.1	1.2
CN(CCO)CCn1ccc2cc(F)ccc21 [2-[2-(5-Fluoroindol-1-yl)ethyl-methyl-amino]ethanol]	-0.2	-1.4
CN(CCO)CCn1ccc2ccc(F)cc21 [2-[2-(6-Fluoroindol-1-yl)ethyl-methyl-amino]ethanol]	8.3	0.2
COc1ccc2c3c([nH]c2c1)CCNCC3 [8-methoxy-1,2,3,4,5,6-hexahydroazepino[4,5-b]indole, reference compound]	71.7	-0.8
COc1ccc2c3c([nH]c2c1)CCN(C)CC3 [TBG, 8-methoxy-3-methyl-1,2,3,4,5,6-hexahydroazepino[4,5-b]indole, reference compound]	18.2	-2.2
